Reference: the supplement of paper PMC10307832

Tests used:
Assay in all cases: relative viability (nuclei count vs DMSO), 5 days (fraction); higher = more cells survive
Afatinib + Phenformin = compound: CN(C)C/C=C/C(=O)Nc1cc2c(Nc3ccc(F)c(Cl)c3)ncnc2cc1O[C@H]1CCOC1 [Afatinib] + N=C(N)NC(=N)NCCc1ccccc1 [Phenformin] (partner 250 µM)
Outline: (§1)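 Lung cancer cell lines, seeded in 1536-well plates, were treated the following day by pin tool with a single drug or with five library-drug doses (not always all listed) in √10 steps on top of a fixed anchor-drug dose. Cells were fixed and nuclei stained in one step after 5 days, and nuclei were counted. Relative viability is the nuclei count for treated wells divided by that for vehicle wells, reported as medians of duplicate plates.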

Afatinib + Trametinib = compound: CN(C)C/C=C/C(=O)Nc1cc2c(Nc3ccc(F)c(Cl)c3)ncnc2cc1O[C@H]1CCOC1 [Afatinib] + CC(=O)Nc1cccc(-n2c(=O)n(C3CC3)c(=O)c3c(Nc4ccc(I)cc4F)n(C)c(=O)c(C)c32)c1 [Trametinib] (partner 0.02 µM)
Outline: as §1

Afatinib + OSI-027 = compound: CN(C)C/C=C/C(=O)Nc1cc2c(Nc3ccc(F)c(Cl)c3)ncnc2cc1O[C@H]1CCOC1 [Afatinib] + COc1cccc2cc(-c3nc([C@H]4CC[C@H](C(=O)O)CC4)n4ncnc(N)c34)[nH]c12 [OSI-027] (partner 0.5 µM)
Outline: as §1

Afatinib = compound: CN(C)C/C=C/C(=O)Nc1cc2c(Nc3ccc(F)c(Cl)c3)ncnc2cc1O[C@H]1CCOC1 [Afatinib]
Outline: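 Viability is treated-well nuclei as a fraction of vehicle-well nuclei, reported as the median across plates. Before counting, lung cancer cell lines were kept overnight at 37 °C in 1536-well plates, pinned with five √10-spaced library-drug doses on vehicle-anchored plates, and left 5 days without medium change, then fixed, permeabilised and Hoechst-stained in one step, imaged at 4× and counted by MetaXpress. A plate passed only if control CV was below 25% and at least one doubling occurred.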

Cell Line	relative viability (Afatinib + Phenformin; first compound 0.005 µM)	relative viability (Afatinib + Phenformin; first compound 0.01581 µM)	relative viability (Afatinib + Phenformin; first compound 0.05 µM)	relative viability (Afatinib + Phenformin; first compound 0.1581 µM)	relative viability (Afatinib + Phenformin; first compound 0.5 µM)	relative viability (Afatinib + Trametinib; first compound 0.005 µM)	relative viability (Afatinib + Trametinib; first compound 0.01581 µM)	relative viability (Afatinib + Trametinib; first compound 0.05 µM)	relative viability (Afatinib + Trametinib; first compound 0.1581 µM)	relative viability (Afatinib + Trametinib; first compound 0.5 µM)	relative viability (Afatinib + OSI-027; first compound 0.005 µM)	relative viability (Afatinib + OSI-027; first compound 0.01581 µM)	relative viability (Afatinib + OSI-027; first compound 0.05 µM)	relative viability (Afatinib + OSI-027; first compound 0.1581 µM)	relative viability (Afatinib + OSI-027; first compound 0.5 µM)	relative viability (Afatinib; 0.005 µM)	relative viability (Afatinib; 0.01581 µM)	relative viability (Afatinib; 0.05 µM)	relative viability (Afatinib; 0.1581 µM)	relative viability (Afatinib; 0.5 µM)
NCI-H441	0.92	0.748	0.916	0.736	0.797	0.536	0.347	0.396	0.325	0.384	0.677	0.582	0.499	0.481	0.426	1.08	0.997	1.18	0.982	0.948
NCI-H460	0.549	0.517	0.536	0.558	0.498	0.161	0.139	0.187	0.133	0.136	0.716	0.629	0.676	0.705	0.666	1.01	1	0.996	1.01	1
NCI-H520	0.562	0.593	0.689	0.609	0.57	0.892	0.633	0.725	0.734	0.545	0.357	0.198	0.201	0.261	0.234	1.08	0.978	0.995	1	0.96
NCI-H522	0.729	0.584	0.643	0.532	0.698	0.58	0.781	0.79	0.667	0.545	0.723	0.594	0.631	0.544	0.557	0.929	0.785	0.703	0.786	0.735
NCI-H596	0.804	0.804	0.729	0.753	0.685	0.783	0.725	0.834	0.782	0.797	0.728	0.701	0.746	0.613	0.651	1.09	0.913	0.933	0.936	0.928
NCI-H647	0.664	0.481	0.57	0.692	0.445	0.554	0.465	0.451	0.468	0.438	0.582	0.629	0.487	0.705	0.554	0.999	0.878	0.998	0.968	1.04
NCI-H650	0.498	0.46	0.446	0.498	0.351	0.947	0.983	0.991	0.969	1.01	0.557	0.475	0.566	0.516	0.503	1.06	0.974	1.07	0.89	0.875
NCI-H661	0.292	0.255	0.253	0.247	0.244	0.52	0.415	0.457	0.367	0.369	0.558	0.458	0.528	0.386	0.367	1.02	0.863	0.831	0.626	0.691
NCI-H727	0.493	–	0.299	0.613	0.442	0.391	0.359	0.393	0.299	0.34	0.699	0.447	0.511	0.49	0.56	0.787	0.765	0.758	0.694	0.837
NCI-H838	0.675	0.54	0.582	0.567	0.553	0.585	0.434	0.523	0.525	0.685	0.445	0.353	0.371	0.365	0.363	1.01	0.966	0.988	0.918	1.05
NCI-H1355	0.484	0.491	0.482	0.424	0.421	0.366	0.428	0.381	0.306	0.341	0.388	0.341	0.348	0.361	0.276	0.976	0.959	0.943	0.849	0.893
NCI-H1395	0.476	0.41	0.447	0.442	0.449	1.13	0.832	1.09	0.911	1.06	0.587	0.561	0.688	0.681	0.592	1.07	0.744	1	1.05	0.849
NCI-H1437	0.333	0.294	0.334	0.358	0.302	0.434	0.413	0.472	0.414	0.434	0.988	0.848	0.894	0.873	0.9	1.02	0.987	0.993	0.984	0.997
NCI-H1650	0.368	–	0.351	0.308	0.308	0.431	0.357	0.475	0.484	0.365	0.476	–	0.557	0.439	0.397	0.755	–	0.896	0.696	0.736
NCI-H1651	0.368	0.333	0.288	0.329	0.332	0.856	0.862	0.838	0.808	0.785	0.688	0.618	0.61	0.67	0.627	1.07	0.949	0.941	0.961	0.915
NCI-H1666	0.572	0.553	0.607	0.555	0.567	0.673	0.648	0.776	0.815	0.791	0.88	0.759	0.657	0.581	0.612	0.95	0.894	0.75	0.707	0.801

Cell Line	relative viability (Afatinib + Phenformin; first compound 0.005 µM)	relative viability (Afatinib + Phenformin; first compound 0.01581 µM)	relative viability (Afatinib + Phenformin; first compound 0.05 µM)	relative viability (Afatinib + Phenformin; first compound 0.1581 µM)	relative viability (Afatinib + Phenformin; first compound 0.5 µM)	relative viability (Afatinib + Trametinib; first compound 0.005 µM)	relative viability (Afatinib + Trametinib; first compound 0.01581 µM)	relative viability (Afatinib + Trametinib; first compound 0.05 µM)	relative viability (Afatinib + Trametinib; first compound 0.1581 µM)	relative viability (Afatinib + Trametinib; first compound 0.5 µM)	relative viability (Afatinib + OSI-027; first compound 0.005 µM)	relative viability (Afatinib + OSI-027; first compound 0.01581 µM)	relative viability (Afatinib + OSI-027; first compound 0.05 µM)	relative viability (Afatinib + OSI-027; first compound 0.1581 µM)	relative viability (Afatinib + OSI-027; first compound 0.5 µM)	relative viability (Afatinib; 0.005 µM)	relative viability (Afatinib; 0.01581 µM)	relative viability (Afatinib; 0.05 µM)	relative viability (Afatinib; 0.1581 µM)	relative viability (Afatinib; 0.5 µM)
NCI-H1734	0.419	0.383	0.412	0.351	0.405	0.684	0.671	0.715	0.683	0.692	0.671	0.624	0.587	0.57	0.511	0.998	0.979	1.02	0.968	1.03
NCI-H1755	0.677	0.663	0.823	0.578	0.617	0.767	0.792	0.807	0.679	0.792	0.736	0.754	0.845	0.627	0.668	0.997	0.983	1.05	1	1.02
NCI-H1792	0.16	0.198	0.398	0.2	0.238	0.56	0.393	0.562	0.538	0.427	0.662	0.762	0.707	0.672	0.735	1.09	0.786	0.853	0.988	0.661
NCI-H1793	0.244	0.316	0.325	0.273	0.321	0.436	0.377	0.432	0.345	0.401	0.237	0.211	0.168	0.233	0.146	0.829	0.616	0.558	0.418	0.536
NCI-H1915	0.389	0.379	0.363	0.378	0.33	0.309	0.304	0.314	0.3	0.301	0.742	0.613	0.602	0.611	0.469	1.06	0.988	1	0.973	0.922
NCI-H1944	0.19	0.195	0.188	0.174	0.166	0.431	0.373	0.358	0.259	0.298	0.429	0.329	0.328	0.311	0.327	0.916	0.906	0.794	0.575	0.73
NCI-H1975	0.444	0.413	0.373	0.223	0.166	0.342	0.288	0.407	0.242	0.195	0.81	0.644	0.688	0.303	0.147	0.945	0.851	0.79	0.479	0.336
NCI-H1993	0.596	0.645	0.656	0.639	0.589	0.593	0.442	0.58	0.546	0.53	0.519	0.588	0.674	0.697	0.564	0.935	0.75	0.84	0.776	0.692
NCI-H2009	0.515	0.481	0.545	0.424	0.445	0.314	0.217	0.319	0.268	0.247	0.635	0.633	0.714	0.516	0.459	1.04	0.998	1.06	0.997	1.06
NCI-H2023	0.436	0.382	0.412	0.291	0.375	0.527	0.505	0.489	0.398	0.393	0.38	0.354	0.394	0.351	0.279	0.968	0.85	0.898	0.882	0.886
NCI-H2085	0.614	0.629	0.606	0.509	0.542	0.433	0.507	0.692	0.513	0.457	0.71	0.61	0.541	0.366	0.366	0.99	0.958	0.856	0.757	0.858
NCI-H2087	0.454	0.475	0.446	0.446	0.373	0.223	0.147	0.183	0.117	0.15	0.731	0.507	0.652	0.753	0.383	1.06	0.857	1.04	0.998	0.895
NCI-H2126	0.584	0.509	0.485	0.434	0.483	0.529	0.585	0.493	0.462	0.459	0.732	0.641	0.547	0.494	0.415	1.01	0.932	0.816	0.679	0.693
NCI-H2170	0.368	0.383	0.335	0.216	0.208	0.892	0.853	0.615	0.169	0.156	0.67	0.5	0.293	0.192	0.191	0.907	0.837	0.445	0.276	0.253
NCI-H2228	0.279	0.273	0.31	0.257	0.242	0.833	0.395	0.544	0.467	0.466	0.546	0.418	0.589	0.638	0.545	1.24	0.884	0.812	0.953	1.05
